The structures appear in SMILES notation.

A word on the IC50: it is the concentration at which inhibition is half-maximal.

In data set [1] the test system is A549. In words: Antiproliferative activity against human A549 cells assessed as reduction in cell viability incubated for 24 hrs by SRB assay. It is filed as functional, cell-based. The note with it: A549, 24 h. (In general: In SRB staining, fixed cells bind dye roughly in proportion to their protein.)
Another data set has as its system SK-MEL-2. In words: Antiproliferative activity against human SK-MEL-2 cells assessed as reduction in cell viability incubated for 24 hrs by SRB assay. It is filed as functional, cell-based. Particulars: SK-MEL-2, 24 h.
For the next data set, the system named is SK-OV-3. In words: Antiproliferative activity against human SKOV3 cells assessed as reduction in cell viability incubated for 24 hrs by SRB assay. The note with it: SK-OV-3, 24 h. It is filed as functional, cell-based.
For the next data set, the system named is HCT-15. In words: Antiproliferative activity against human HCT15 cells assessed as reduction in cell viability incubated for 24 hrs by SRB assay. The format is functional, cell-based. The note with it: HCT-15, 24 h.
In data set [2] the test system is MCF7. The data set is described as follows: Antiproliferative activity against human MCF7 cells assessed as reduction in cell viability incubated for 24 hrs by SRB assay. It is filed as functional, cell-based. The note with it: MCF7, 24 h.
In a further data set the test system is KB 3-1. The data set is described as follows: Antiproliferative activity against human KB3-1 cells assessed as reduction in cell viability after 96 hrs by methylene blue staining based spectrophotometric method. It is filed as functional. The note with it: KB 3-1, 96 h.
The nature of data set [3]: Antiproliferative activity against human KB-8-5-11 cells assessed as reduction in cell viability after 96 hrs by methylene blue staining based spectrophotometric method. The format is functional.
Data set [4] has as its system MCF7. The data set is described as follows: Antiproliferative activity against human MCF7 cells assessed as reduction in cell viability by MTT assay. It is filed as functional, cell-based.
Another data set relates to A2780. In words: Antiproliferative activity against human A2780 cells assessed as reduction in cell viability by MTT assay. It is filed as functional, cell-based. (Formazan colour is commonly taken as a measure of viable cells.)
The subject of data set [5] is A549. In words: Antiproliferative activity against human A549 cells assessed as reduction in cell viability by MTT assay. The format is functional, cell-based.
Another data set relates to Bel-7402. In words: Antiproliferative activity against human Bel7402 cells assessed as reduction in cell viability by MTT assay. The format is functional, cell-based.
Another data set deals with LoVo. The data set is described as follows: Antiproliferative activity against human LoVo cells assessed as reduction in cell viability. It is filed as functional, cell-based.
In data set [6] the test system is MCF7. The data set is described as follows: Antiproliferative activity against human MCF7 cells assessed as reduction in cell viability. It is filed as functional, cell-based.
For a further data set, the system named is DLD-1. The data set is described as follows: Antiproliferative activity against human DLD1 cells assessed as reduction in cell viability. It is filed as functional, cell-based.
For the next data set, the system named is MDA-MB-231. In words: Antiproliferative activity against human MDA-MB-231 cells assessed as reduction in cell viability. The format is functional, cell-based.
Data set [7] addresses ATP-dependent translocase ABCB1 (Homo sapiens, UniProt P08183). The data set is described as follows: Induction of P-gp in human LS180 cells assessed as […] in intracellular accumulation of Rh123 at 100 nM using Rho123 as substrate preincubated for 48 hrs followed by addition of Rh123 and measured after 90 mins by fluorescence based assay relative to control. Particulars: ls180, 48 h preincubation, then 1.5 h with Rh123, 0.1 µM. The format is cell-based.

The test system of a further data set is HCT-116. In words: Antiproliferative activity against human HCT116 cells assessed as reduction in cell viability incubated for 48 hrs by MTT assay. The format is functional, cell-based. The note with it: HCT-116, 48 h.

Sequence of ATP-dependent translocase ABCB1 (P08183 whole entry): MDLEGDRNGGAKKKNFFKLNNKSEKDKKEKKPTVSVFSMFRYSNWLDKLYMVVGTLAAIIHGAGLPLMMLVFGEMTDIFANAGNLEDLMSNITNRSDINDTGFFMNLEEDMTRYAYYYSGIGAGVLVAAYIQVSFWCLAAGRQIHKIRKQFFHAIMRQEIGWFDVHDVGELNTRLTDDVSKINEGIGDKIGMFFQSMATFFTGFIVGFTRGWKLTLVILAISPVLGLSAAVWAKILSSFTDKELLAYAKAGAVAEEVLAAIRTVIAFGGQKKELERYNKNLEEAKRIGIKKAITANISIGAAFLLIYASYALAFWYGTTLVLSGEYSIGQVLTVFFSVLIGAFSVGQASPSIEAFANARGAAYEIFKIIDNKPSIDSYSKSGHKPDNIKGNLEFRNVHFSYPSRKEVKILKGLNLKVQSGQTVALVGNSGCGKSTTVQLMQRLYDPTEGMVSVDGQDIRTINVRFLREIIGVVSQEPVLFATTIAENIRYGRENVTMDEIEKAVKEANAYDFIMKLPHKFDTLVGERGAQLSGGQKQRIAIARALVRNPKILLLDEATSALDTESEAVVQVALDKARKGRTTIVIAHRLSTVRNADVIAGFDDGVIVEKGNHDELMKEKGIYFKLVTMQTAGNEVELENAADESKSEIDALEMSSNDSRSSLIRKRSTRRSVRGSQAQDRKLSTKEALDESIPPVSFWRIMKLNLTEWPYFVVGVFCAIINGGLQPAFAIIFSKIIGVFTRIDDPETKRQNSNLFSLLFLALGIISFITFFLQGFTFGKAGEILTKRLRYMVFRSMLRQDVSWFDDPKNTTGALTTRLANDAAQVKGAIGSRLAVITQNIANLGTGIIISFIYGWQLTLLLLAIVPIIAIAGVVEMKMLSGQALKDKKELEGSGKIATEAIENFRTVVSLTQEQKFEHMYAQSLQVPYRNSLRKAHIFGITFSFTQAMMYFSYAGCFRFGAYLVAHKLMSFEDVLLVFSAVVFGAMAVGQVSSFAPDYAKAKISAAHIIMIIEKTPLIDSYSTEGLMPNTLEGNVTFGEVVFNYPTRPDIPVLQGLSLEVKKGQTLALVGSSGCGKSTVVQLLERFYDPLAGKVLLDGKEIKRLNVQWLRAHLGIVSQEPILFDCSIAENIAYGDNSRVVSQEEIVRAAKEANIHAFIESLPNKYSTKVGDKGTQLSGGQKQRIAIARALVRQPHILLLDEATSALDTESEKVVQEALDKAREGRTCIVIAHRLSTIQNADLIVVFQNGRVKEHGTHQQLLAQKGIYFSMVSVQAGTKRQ

Turning to `COc1cc2c(c(OC)c1OC)-c1ccc(SC)c(=O)cc1[C@@H](NC(=O)CCC1=C(C)c3cc4[nH]c(cc5nc(cc6[nH]c(cc1n3)c(CCC(=O)N[C@H]1CCc3cc(OC)c(OC)c(OC)c3-c3ccc(SC)c(=O)cc31)c6C)C(C(C)O)=C5C)c(C(C)O)c4C)CC2` (stereo partly specified), the IC50 in the data set on A549 [1] was found to be 1680 nM; with SK-MEL-2, 2840 nM; with SK-OV-3, 2860 nM; in the data set with HCT-15, 4840 nM; with MCF7 [2], 3220 nM.

On to `C=C(C)[C@@H]1CC=C(C(=O)N[C@H]2CCc3cc(OC)c(OC)c(OC)c3-c3ccc(SC)c(=O)cc32)CC1`, for which the IC50 in the data set on A549 [1] is 7.5 nM; in the data set on SK-MEL-2, 17.9 nM; in the data set on SK-OV-3 it was 17.2 nM; with HCT-15, 8.1 nM; with MCF7 [2], 5.2 nM.

Turning to `COc1c(CO)c2c(c(OC)c1OC)-c1ccc(OC)c(=O)cc1[C@@H](NC(C)=O)CC2`, the half-maximal inhibitory concentration (IC50) in the data set with KB 3-1 was 260 nM; in data set [3], greater than 1000 nM.

For the compound `COc1cc2c(c(OC)c1OC)-c1ccc(SC)c(=O)cc1[C@@H](NC(=O)[C@H](O)[C@@H](O)[C@H](O)[C@H](O)CO)CC2`, the IC50 in the data set on A549 [1] came to 14.2 nM; in the data set with SK-MEL-2, 12.3 nM; in the data set with SK-OV-3, 29.8 nM; in the data set with HCT-15 it was 18.7 nM; in the data set on MCF7 [2] it was 7.8 nM.

With `CNc1ccc2c(cc1=O)[C@@H](NC(=O)CCC(=O)OCCCCO[N+](=O)[O-])CCc1cc(OC)c(OC)c(OC)c1-2`, the IC50 in the data set with MCF7 [4] turned out to be 8 nM; in the data set on A2780, 10 nM; in the data set on A549 [5], 12 nM; in the data set on Bel-7402 it was 13 nM.

As for `COc1cc(/C=C/C(=O)N[C@H]2CCc3cc(OC)c(OC)c(OC)c3-c3ccc(SC)c(=O)cc32)ccc1O`, the IC50 in the data set with A549 [1] was determined as 5.8 nM; in the data set with SK-MEL-2 it was 16.6 nM; in the data set on SK-OV-3, 24.8 nM; in the data set on HCT-15 it was 10.8 nM; with MCF7 [2], 5.6 nM.

For the compound `CNc1ccc2c(cc1=O)[C@@H](NC(=O)CCC(=O)OCCCCCCO[N+](=O)[O-])CCc1cc(OC)c(OC)c(OC)c1-2`, the 50% inhibitory concentration (IC50) amounted to 95 nM with MCF7 [4], 109 nM with A2780, 205 nM with A549 [5] and 86 nM with Bel-7402.

As to `CNc1ccc2c(cc1=O)[C@@H](NC(=O)CCC(=O)OCCCO[N+](=O)[O-])CCc1cc(OC)c(OC)c(OC)c1-2`, the IC50 amounted to 135 nM in the data set on MCF7 [4], 99 nM in the data set with A2780, 88 nM in the data set on A549 [5] and 85 nM with Bel-7402.

With `CCCCSc1ccc2c(cc1=O)[C@@H](NC(C)=O)CCc1cc(OC)c(OC)c(OC)c1-2`, the IC50 came out at 438 nM in the data set with LoVo, 874 nM with MCF7 [6], 317 nM in the data set on DLD-1 and 1770 nM in the data set with MDA-MB-231.

For the compound `COc1cc2c(c(OC)c1OC)-c1ccc(OC)c(=O)cc1[C@@H](NC(C)=O)CC2` [COLCHICINE], the 50% inhibitory concentration (IC50) in the data set with A549 [1] is 21 nM; in the data set with SK-MEL-2, 6 nM; in the data set on SK-OV-3, 18 nM; in the data set on HCT-15, 9 nM; in the data set with MDA-MB-231, 25.3 nM; with MCF7 [2], greater than 300 nM. Besides, the IC50 with HCT-116 worked out at 50 nM. Besides, in data set [7], the Activity is given as 62.91%.

Consider `COc1c(COC2CCCCO2)c2c(c(OC)c1OC)-c1ccc(OC)c(=O)cc1[C@@H](NC(C)=O)CC2` (stereo partly specified), for which the IC50 (in the data set on KB 3-1; in data set [3]) was greater than 1000 nM throughout.

With `COc1cc2c(c(OC)c1OC)-c1ccc(SC)c(=O)cc1[C@@H](NC(=O)Cc1ccccc1Nc1c(Cl)cccc1Cl)CC2`, the IC50 with A549 [1] stood at 520 nM; in the data set on SK-MEL-2 it was 1050 nM; with SK-OV-3, 1500 nM; in the data set with HCT-15, 306 nM; in the data set with MCF7 [2] it was 296 nM.

In the case of `CCCSc1ccc2c(cc1=O)[C@@H](NC(C)=O)CCc1cc(OC)c(OC)c(OC)c1-2`, the half-maximal inhibitory concentration (IC50) with LoVo was found to be 56.1 nM; with MCF7 [6], 764 nM; in the data set with DLD-1, 71.8 nM; in the data set on MDA-MB-231 it was 704 nM.

For the compound `COc1cc2c(c(OC)c1OC)-c1ccc(SC(C)C)c(=O)cc1[C@@H](NC(C)=O)CC2`, the half-inhibitory concentration (IC50) turned out to be 150 nM in the data set with LoVo, 564 nM in the data set with MCF7 [6], 177 nM in the data set with DLD-1 and 1100 nM in the data set on MDA-MB-231.

`CCSc1ccc2c(cc1=O)[C@@H](NC(C)=O)CCc1cc(OC)c(OC)c(OC)c1-2`: the IC50 in the data set on LoVo is 19.5 nM; in the data set on MCF7 [6] it was 56.1 nM; with DLD-1, 51.2 nM; with MDA-MB-231, 148 nM.

With `CNc1ccc2c(cc1=O)[C@@H](NC(=O)CCC(=O)OCCCCCO[N+](=O)[O-])CCc1cc(OC)c(OC)c(OC)c1-2`, the IC50 was found to be 100 nM in the data set on MCF7 [4], 96 nM with A2780, 86 nM with A549 [5] and 85 nM in the data set with Bel-7402.

Take `CC/C=C\C/C=C\C/C=C\C/C=C\C/C=C\C/C=C\CCC(=O)N[C@H]1CCc2cc(OC)c(OC)c(OC)c2-c2ccc(SC)c(=O)cc21`: the half-inhibitory concentration (IC50) in the data set on A549 [1] amounted to 917 nM; in the data set on SK-MEL-2, 2000 nM; with SK-OV-3 it was 2630 nM; in the data set on HCT-15, 392 nM; in the data set on MCF7 [2], 494 nM.

For the compound `COc1c(COC(C)=O)c2c(c(OC)c1OC)-c1ccc(OC)c(=O)cc1[C@@H](NC(C)=O)CC2`, the concentration for half-maximal inhibition (IC50) (in the data set on KB 3-1; in data set [3]) was greater than 1000 nM in each case.

With `COc1cccc2c1C(=O)c1c(O)c3c(c(O)c1C2=O)C[C@@](O)(C(=O)CO)C[C@@H]3O[C@H]1C[C@H](N)[C@H](O)[C@H](C)O1` [DOXORUBICIN], the IC50 amounted to 520 nM with LoVo; 14.7 nM in the data set on A549 [1]; 11.7 nM in the data set with SK-MEL-2; 34.2 nM in the data set with SK-OV-3; 16.4 nM in the data set on HCT-15; 511 nM in the data set with DLD-1. Also, the IC50 in the data set on MDA-MB-231 came out at 936 nM.

As to `CCCCCCCCCCCCCC[C@H]1OC(C)(C)O[C@H]1[C@@H](NC(=O)OC(C)(C)C)C(=O)N[C@H]1CCc2cc(OC)c(OC)c(OC)c2-c2ccc(SC)c(=O)cc21`, the IC50 in the data set with A549 [1] worked out at 228 nM; in the data set with SK-MEL-2, 130 nM; in the data set with SK-OV-3, 676 nM; in the data set on HCT-15, 204 nM; with MCF7 [2], 303 nM.

Take `CNc1ccc2c(cc1=O)[C@@H](NC(=O)CCC(=O)OC/C=C/CO[N+](=O)[O-])CCc1cc(OC)c(OC)c(OC)c1-2`: the 50% inhibitory concentration (IC50) with MCF7 [4] was 202 nM; with A2780, 205 nM; with A549 [5], 135 nM; with Bel-7402, 120 nM.

Turning to `CNc1ccc2c(cc1=O)[C@@H](NC(=O)CCC(=O)OCCO[N+](=O)[O-])CCc1cc(OC)c(OC)c(OC)c1-2`, the IC50 with MCF7 [4] amounted to 103 nM; in the data set on A2780, 104 nM; with A549 [5], 106 nM; in the data set on Bel-7402, 202 nM.

These data come from ChEMBL document CHEMBL4321828, “Recent developments on (-)-colchicine derivatives: Synthesis and structure-activity relationship” (Eur J Med Chem, 2020).
